Tests used:
[1] = tested on: SKBR3 cells; test: IC50 of Metformin in SKBR3/Vec and SKBR3/siEMP3 cells; assay type: cell-based, human; settings: 72 hours post treatment; SKBR3/siEMP3 vs SKBR3/Vec
Excerpt: (§1) Please refer to FIGS. 12A to 12B. The potential impact of EMP3 on sensitivity to Metformin in SKBR3 cells in vitro was illustrated therein. […] That means knocking down of EMP3 raises survival rate of breast cancer cells upon treatment of Metformin, which may imply a desensitizing effect of EMP3 on breast cancer cells in upon Metformin treatment. […] As well-known in the field of endeavor, interference of cross-talk between AMPK and Wnt/β-catenin signaling pathways may decelerate cell growth of breast cancer cells. In example 7, the intervention level of Metformin to AMPK in SKBR3/Vec and SKBR3/siEMP3 cancer cells was verified.

[2] = tested on: AMPK-α1 and AMPK-α2; test: Western blot, effect of Metformin on AMPK signaling pathway in SKBR3 cells; assay type: cell-based, human
Description: Cells were lyzed in a radioimmunoprecipitation assay (RIPA) lysis buffer (Thermo Fisher Scientific Inc., Waltham, MA) and protease inhibitors (Thermo Fisher Scientific Inc., Waltham, MA) were used for protein extraction. Briefly, a total of 30 μg of protein was prepared on a 6 to 12% SDS-PAGE and transferred to a 0.2 to 0.45 μm polyvinylidene difluoride membrane (Stratagene, La Jolla, CA) and blocked by 5% milk (non-fat milk) in Tris Buffered Saline Buffer with Tween 20 (TBST). The membrane was hybridized with primary antibody at 4° C. overnight. The following day, after being washed with TBST for three times, membranes were incubated with secondary antibodies (anti-rabbit or anti-mouse IgG antibody) for 1 hour at room temperature. Detection of protein bands was performed using enhanced chemiluminescence system (Amersham ECL Plus; GE Healthcare, Piscataway, NJ).
as §1, with “In example 7, the intervention level of Metformin to AMPK in SKBR3/Vec and SKBR3/siEMP3 cancer cells was verified.” left out

IC50 values for Metformin in SKBR3/siEMP3 cells relative to vector control [1]: higher
SMILES: CN(C)C(=N)N=C(N)N [Metformin]
AMPK-α1 expression [2]: down-regulated
AMPK-α2 expression [2]: down-regulated
